Source: US20210255193A1, “LYSINE REACTIVE PROBES AND USES THEREOF” (The Scripps Research Institute, priority 2017, published 2021)

Columns and labels:
Assay in all cases: competitive isoTOP-ABPP
[1] = biological target: T1, HK1 Hexokinase-1 (Homo sapiens, UniProt P19367); type: binding; parameters: key to isoTOP-ABPP reactivity ratio at lysine P19367_K510: R = MS1 peak area ratio, DMSO (heavy) / compound-treated (light); conditions: for isoTOP-ABPP reactivity ratio at lysine P19367_K510: 231 sol
T1 construct: isoTOP-ABPP experiments performed in cell lysates (in vitro); endogenous in cells; host or cells: soluble proteome of human cancer cell lines (MDA-MB-231; Ramos and Jurkat also prepared)
T1 sequence (P19367 1-917): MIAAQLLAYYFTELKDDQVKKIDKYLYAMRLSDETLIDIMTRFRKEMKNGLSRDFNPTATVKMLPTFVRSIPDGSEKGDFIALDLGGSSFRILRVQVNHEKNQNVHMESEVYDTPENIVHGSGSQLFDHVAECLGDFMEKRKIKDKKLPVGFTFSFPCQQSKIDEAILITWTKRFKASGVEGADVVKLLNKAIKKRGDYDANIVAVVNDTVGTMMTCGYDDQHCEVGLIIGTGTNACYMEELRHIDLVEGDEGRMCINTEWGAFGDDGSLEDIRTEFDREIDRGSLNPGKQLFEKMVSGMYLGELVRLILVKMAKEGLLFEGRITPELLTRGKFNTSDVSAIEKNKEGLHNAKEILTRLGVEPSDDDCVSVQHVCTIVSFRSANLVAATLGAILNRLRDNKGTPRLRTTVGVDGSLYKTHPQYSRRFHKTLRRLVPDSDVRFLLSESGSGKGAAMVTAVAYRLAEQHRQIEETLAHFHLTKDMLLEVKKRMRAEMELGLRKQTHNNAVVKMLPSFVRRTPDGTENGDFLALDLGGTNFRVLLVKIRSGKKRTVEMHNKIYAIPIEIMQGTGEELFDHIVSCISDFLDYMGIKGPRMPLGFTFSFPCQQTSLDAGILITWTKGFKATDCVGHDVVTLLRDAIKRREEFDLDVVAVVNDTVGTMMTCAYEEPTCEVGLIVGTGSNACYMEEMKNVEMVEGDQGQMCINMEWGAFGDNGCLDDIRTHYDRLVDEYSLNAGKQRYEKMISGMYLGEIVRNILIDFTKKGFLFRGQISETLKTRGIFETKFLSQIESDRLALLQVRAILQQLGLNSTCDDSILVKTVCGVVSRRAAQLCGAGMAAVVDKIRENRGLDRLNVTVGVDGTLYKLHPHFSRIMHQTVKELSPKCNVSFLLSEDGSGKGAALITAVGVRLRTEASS
Procedure: (§1) In vitro covalent fragment treatment for isoTOP-ABPP. All compounds were made up as solutions in DMSO (100×) and were used at a final concentration of 50 μM for activated esters and 100 μM for guanidinylating agents. For each profiling sample, 0.5 ml of lysate was treated with 5 μl of the 100× compound stock solution or 5 μl of DMSO. Samples were treated with activated esters for
(§2) STP-alkyne labeling and click chemistry. For concentration-dependent reactivity measurements by isoTOP-ABPP, 0.5 ml proteome aliquots were treated at ambient temperature with 1 mM STP-alkyne 1 (5 μl of 100 mM stock in DMSO) and 0.1 mM STP alkyne 1 (5 μl of 10 mM stock in DMSO), respectively. For competitive isoTOP-ABPP, after in vitro fragment treatment (detailed above), the samples were labeled for 1 h at ambient temperature with 0.1 mM STP-alkyne 1 (5 μl of 10 mM stock in DMSO). Samples were conjugated by copper-mediated azide-alkyne cycloaddition (CuAAC) to either the light (1 mM STP-alkyne or fragment treated) or heavy (0.1 mM STP-alkyne or DMSO treated) TEV tags (10 μl of 5 mM stocks in DMSO, final concentration=100 μM) using tris(2-carboxyethyl)phosphine hydrochloride
(§3) R value calculation and processing. The ratios of light and heavy MS1 peaks for each unique peptide were quantified with a CIMAGE software using default parameters (3 MS1 acquisitions per peak and signal to noise threshold set to 2.5). For reactivity measurements by isoTOP-ABPP, the R value was calculated from the ratio of MS1 peak areas, comparing the 1 mM STP alkyne sample (light TEV tag) with the 0.1 mM STP alkyne sample (heavy TEV tag). For competitive isoTOP-ABPP, the R value was calculated from the ratio of MS1 peak areas, comparing the DMSO treated sample (heavy TEV tag) with the compound treated sample (light TEV tag). […] Ratios for unique peptide entries are calculated for each experiment; overlapping peptides with the same modified lysine (for example, different charge states, MudPIT chromatographic steps or tryptic termini) are grouped together and the median ratio is reported as the final ratio (R). The peptide ratios reported by CIMAGE were further filtered to ensure the removal or correction of low-quality ratios in each individual data set. The quality filters applied were the following: removal of half tryptic peptides; for ratios with high standard deviations from the median (90% of the median or above) the lowest ratio was taken instead of the median; removal of peptides with R=20 and only a single MS2 event triggered during the elution of the parent ion; manual annotation of all the peptides with ratios of 20, removing any peptides with low quality elution profiles that remained after the previous curation steps (only done for competitive isoTOP-ABPP).
(§4) Cross-data processing for fragment screening. For compound treated samples, biological replicates of the same condition were averaged, if the standard deviation was below 60% of the mean; otherwise, for lysines with at least one R value <4 for a particular compound, the lowest value of the ratio set was taken. For lysines, where all R values for a particular compound were ≥4, the average was reported. For peptides containing several possible modified lysines, the lysine with the highest number of quantification events was used for analysis and the remaining, redundant peptides were reported as alternative modification sites. Peptides included in the aggregate dataset (those used for further bioinformatics and statistical analyses) were required to have been quantified in 2 experiments for competitive isoTOP-ABPP. Lysines were categorized as liganded, if they had at least one ratio R≥4 (hit fragments). For liganded lysines with R=20 for all liganding events, lysines were required to have been quantified with R=20 in two separate experiments and were further required to have been quantified with R<20 in one additional experiment.

[2] = biological target: T2, MAP1LC3B Microtubule-associated proteins 1A/1B light chain (Homo sapiens, UniProt Q9GZQ8); type: binding; parameters: key to isoTOP-ABPP reactivity ratio at lysine Q9GZQ8_K51: R = MS1 peak area ratio, DMSO (heavy) / compound-treated (light); conditions: for isoTOP-ABPP reactivity ratio at lysine Q9GZQ8_K51: 231 sol
T2 construct: isoTOP-ABPP experiments performed in cell lysates (in vitro); endogenous in cells; host or cells: soluble proteome of human cancer cell lines (MDA-MB-231; Ramos and Jurkat also prepared)
Procedure: as §1, §2, §3, §4

[3] = biological target: T3, ABCE1 ATP-binding cassette sub-family E member 1 (Homo sapiens, UniProt P61221); conditions: for isoTOP-ABPP reactivity ratio at lysine P61221_K191 / isoTOP-ABPP reactivity ratio at lysine P61221_K478: 231 sol
T3 construct: isoTOP-ABPP experiments performed in cell lysates (in vitro); endogenous in cells; host or cells: soluble proteome of human cancer cell lines (MDA-MB-231, Ramos, Jurkat)
Procedure: as §1, §2, §3, §4

| SMILES | isoTOP-ABPP reactivity ratio at lysine P19367_K510 ([1]; 50 uM, in vitro) | isoTOP-ABPP reactivity ratio at lysine Q9GZQ8_K51 ([2]; 50 uM, in vitro) | isoTOP-ABPP reactivity ratio at lysine P61221_K191 ([3]; 50 uM, in vitro) | isoTOP-ABPP reactivity ratio at lysine P61221_K478 ([3]; 50 uM, in vitro) | other results |
| --- | --- | --- | --- | --- | --- |
| O=C(Oc1ccc([N+](=O)[O-])cc1[N+](=O)[O-])c1cc(C(F)(F)F)cc(C(F)(F)F)c1 [fragment 31, 2,4-Dinitrophenyl 3,5-bis(trifluoromethyl)benzoate] | 1.1 | 1.1 | 1.4 | 1.1 |  |
| O=C(CN1C(=O)c2ccccc2C1=O)Oc1c(F)c(F)c(F)c(F)c1F [fragment 27, Pentafluorophenyl 2-(1,3-dioxoisoindolin-2-yl)acetate] | 1.3 | 1.0 |  | 2.1 |  |
| O=C(Oc1ccc([N+](=O)[O-])cc1[N+](=O)[O-])C(c1ccccc1)(c1ccccc1)c1ccccc1 [fragment 42, 2,4-Dinitrophenyl 2,2,2-triphenylacetate] |  |  |  |  | isoTOP-ABPP ratio (R) at liganded lysine P19367_K510 ([1]; 50 uM, in vitro, sol, 231): 0.8; isoTOP-ABPP ratio (R) at liganded lysine Q9GZQ8_K51 ([2]; 50 uM, in vitro, sol, 231): 0.9; isoTOP-ABPP ratio (R) at liganded lysine P61221_K191 ([3]; 50 uM, in vitro, sol, 231): 1.0; isoTOP-ABPP ratio (R) at liganded lysine P61221_K478 ([3]; 50 uM, in vitro, sol, 231): 1.1 |
| Cn1cc(CC(=O)Oc2ccc([N+](=O)[O-])cc2[N+](=O)[O-])c2ccccc21 [fragment 32, 2,4-Dinitrophenyl 2-(1-methyl-1H-indol-3-yl)acetate] | 8.6 | 0.9 | 1.3 | 1.2 |  |
| O=C(CCc1cn(-c2ccccc2)nc1-c1ccccc1)Oc1ccc([N+](=O)[O-])cc1[N+](=O)[O-] [fragment 29, 2,4-Dinitrophenyl 3-(1,3-diphenyl-1H-pyrazol-4-yl)propanoate] | 10.8 | 0.8 | 1.0 | 1.2 |  |
| N#Cc1ccc(C(=O)Oc2ccc([N+](=O)[O-])cc2[N+](=O)[O-])cc1 [fragment 44, 2,4-Dinitrophenyl 4-cyanobenzoate] |  |  |  |  | isoTOP-ABPP ratio, lysine P19367_K510 ([1]; 50 uM_231_sol_in vitro): 1.2; isoTOP-ABPP ratio, lysine Q9GZQ8_K51 ([2]; 50 uM_231_sol_in vitro): 0.9; isoTOP-ABPP ratio, lysine P61221_K191 ([3]; 50 uM_231_sol_in vitro): 1.1; isoTOP-ABPP ratio, lysine P61221_K478 ([3]; 50 uM_231_sol_in vitro): 0.9 |
| O=C(CCc1coc2cc(F)ccc2c1=O)Oc1c(F)c(F)c(F)c(F)c1F [fragment 26, Pentafluorophenyl 3-(7-fluoro-4-oxo-4H-chromen-3-yl)propanoate] | 3.4 | 1.2 | 1.4 | 1.3 |  |
